# ChEMBL document CHEMBL5233286, “Lasiodiplodiapyrones A and B, Pyrone-Preussomerin Adducts with Highly Strained Polycyclic Ring Systems from Lasiodiplodia pseudotheobromae” (J Nat Prod, 2023)
# Where a SMILES comes first, the peptide text is derived from it. The star is where a group is joined. Cbz = O=C(OCc1ccccc1)*
# System: RAW264.7
# Assay: Anti-inflammatory activity against mouse RAW264.7 cells assessed as inhibition of LPS-induced NO production pretreated with compound for 2 hrs followed by LPS stimulation for 12 hrs by Griess reagent based analysis
# Type: functional, cell-based
row,SMILES,IC50
1,O=C1C[C@@H](O)[C@]23Oc4cccc5c4[C@](CC[C@@H]5O)(Oc4ccc(O)c1c42)O3,12.8 µM
2,CC(C)C[C@@H](C=O)NC(=O)[C@H](CC(C)C)NC(=O)[C@H](CC(C)C)NC(=O)OCc1ccccc1 [MG-132] (Cbz-Leu-Leu-Leu-aldehyde),2.6 µM
3,Oc1ccc2c3c1[C@@H](O)[C@H]1O[C@H]1[C@]31Oc3cccc4c3[C@](CC[C@@H]4O)(O2)O1,5.9 µM
4,Cc1cc2c(c(=O)o1)[C@@H]1[C@H](O2)[C@H](O)c2c(O)ccc3c2[C@@]12Oc1cccc4c1[C@](CC[C@@H]4O)(O3)O2,4.8 µM
5,Cc1cc2c(c(=O)o1)[C@@H]1[C@H](O2)[C@H](O)c2c(O)ccc3c2[C@@]12Oc1cccc4c1[C@](C=C[C@@H]4O)(O3)O2,8.5 µM
